Assay results as given in ChEMBL document CHEMBL1132331, “Synthesis and biological activity of the superestrogen (E)-17-oximino-3-O-sulfamoyl-1,3,5(10)-estratriene: x-ray crystal structure of (E)-17-oximino-3-hydroxy-1,3,5(10)-estratriene” (J Med Chem, 1999).

Tests used:
Steryl-sulfatase = biological target: T1, Steryl-sulfatase (Homo sapiens, UniProt P08842); test: In vitro inhibition of estrone sulfatase in placental microsomes; design: species or system Placenta
T1 sequence (P08842 whole entry): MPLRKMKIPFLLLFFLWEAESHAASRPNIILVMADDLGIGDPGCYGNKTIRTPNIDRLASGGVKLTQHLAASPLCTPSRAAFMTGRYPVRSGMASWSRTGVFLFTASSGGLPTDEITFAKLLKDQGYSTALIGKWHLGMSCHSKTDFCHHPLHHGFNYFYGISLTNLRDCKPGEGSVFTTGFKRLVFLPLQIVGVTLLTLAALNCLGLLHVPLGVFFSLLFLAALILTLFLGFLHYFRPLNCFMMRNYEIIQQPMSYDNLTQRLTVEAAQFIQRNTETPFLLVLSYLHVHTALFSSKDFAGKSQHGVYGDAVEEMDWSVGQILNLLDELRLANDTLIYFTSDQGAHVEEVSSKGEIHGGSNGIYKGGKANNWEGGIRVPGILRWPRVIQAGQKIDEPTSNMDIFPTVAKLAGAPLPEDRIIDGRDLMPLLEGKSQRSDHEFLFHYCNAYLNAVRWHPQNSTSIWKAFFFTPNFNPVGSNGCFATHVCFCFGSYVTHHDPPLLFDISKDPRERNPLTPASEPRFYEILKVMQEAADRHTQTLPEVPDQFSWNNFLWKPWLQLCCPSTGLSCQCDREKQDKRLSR

Rattus norvegicus = organism: Rattus norvegicus; test: Effect on uterine weight gain in ovariectomized rat, expressed as uterine weight/total body weight X100 (0.036+/-0.001); assay type: functional
[1] = biological target: T2, Steryl-sulfatase (Homo sapiens) (UniProt P08842); test: Inhibition of estrone sulfatase in MCF-7 breast cancer cells at 0.1 uM; assay type: cell-based; conditions: MCF7
T2 sequence (whole entry): T1 sequence (P08842 whole entry)

[2] = biological target: T3, Steryl-sulfatase (Rattus norvegicus) (UniProt P15589); test: In vivo inhibition of estrone sulfatase in rat liver after oral administration; assay type: organism-based; conditions: concentration not given here
T3 sequence (whole entry): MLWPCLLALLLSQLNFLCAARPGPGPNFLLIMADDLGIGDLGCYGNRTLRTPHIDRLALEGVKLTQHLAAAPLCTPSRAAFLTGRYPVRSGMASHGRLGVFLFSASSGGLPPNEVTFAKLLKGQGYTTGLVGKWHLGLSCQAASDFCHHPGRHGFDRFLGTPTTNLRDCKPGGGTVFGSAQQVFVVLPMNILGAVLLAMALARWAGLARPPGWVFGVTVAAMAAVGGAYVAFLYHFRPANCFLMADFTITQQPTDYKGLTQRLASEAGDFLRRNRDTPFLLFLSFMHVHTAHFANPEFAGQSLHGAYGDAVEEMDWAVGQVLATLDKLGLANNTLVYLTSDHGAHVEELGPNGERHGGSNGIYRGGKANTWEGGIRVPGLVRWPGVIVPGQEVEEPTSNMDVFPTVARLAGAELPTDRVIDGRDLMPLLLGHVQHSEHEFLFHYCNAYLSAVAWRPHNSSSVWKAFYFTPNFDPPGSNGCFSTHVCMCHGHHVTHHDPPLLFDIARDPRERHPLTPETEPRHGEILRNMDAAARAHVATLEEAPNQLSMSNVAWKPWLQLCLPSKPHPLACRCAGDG

Compound | IC50 (Steryl-sulfatase) [nM] | Average uterine weight (Rattus norvegicus) | inhibition [1] [%] | inhibition [2] [%]
C[C@]12CC[C@@H]3c4ccc(OS(N)(=O)=O)cc4CC[C@H]3[C@@H]1CC/C2=N\O | 80 | 0.15 | 99 | 99
C[C@]12CC[C@@H]3c4ccc(OS(N)(=O)=O)cc4CC[C@H]3[C@@H]1CCC2=O [EMATE] | 93 | 0.11 |  | 99
